Experimental data taken from patent publication US20240398899A1 (priority 2021, published 2024).

What was measured:
Assay in all cases: Alzheimer's biomarker multiplex analysis, scopolamine-damaged SH-SY5Y
Format in all cases: cell-based, human
Conditions in all cases: Scopolamine (4 mM)
b-NGF = test system: b-NGF
Protocol: (§1) After overnight incubation as in the previous examples, cells were treated with recombinant lectin protein having SEQ ID NO: 1 at different concentrations ranging from 0.001 μg/ml-1 μg/ml for 24 h for Parkinson disease and 0.01 μg/ml-25 μg/ml for 24 h for Alzheimer's disease. • Parkinson Disease: After 24 h of pre-treatment with recombinant lectin protein having SEQ ID NO: 1, cells were exposed (MPP+) for another 24 h. Cells treated with MPP+Iodide were included as Control. […] The cells treated with Galantamine were included as positive Control.
(§2) The levels of markers were determined by multiplex analysis as: Cell culture supernatants were diluted (1:2) with Calibrator Diluent. 50 μl of standard or sample was added per well. 50 μl of the microparticle cocktail was added to each well of the microplate and covered with a foil plate sealer. The plate was incubated for 2 hours at room temperature on a horizontal orbital microplate shaker. The plate was washed using a magnetic device designed to accommodate a microplate. Washing was done by applying the magnet to the bottom of the microplate, allowing 1 minute before removing the liquid, filling each well with wash buffer (100 μl) and allowing 1 minute before removing the liquid again. 50 μl of diluted Biotin-Antibody Cocktail was added to each well. Covered the plate with a foil plate sealer and incubated for 1 hour at room temperature on the shaker. Repeated the wash step. 50 μl of diluted Streptavidin-PE was added to each well. The plate was securely covered with a foil plate sealer and incubated for 30 minutes at room temperature on the shaker. Repeated the wash step. The microparticles were resuspended by adding 100 μl of Wash Buffer to each well. The plate was incubated for 2 minutes on the shaker and read within 90 minutes using Magpix® multiplex machine. Levels of biomarkers for Parkinson's and Alzheimer's disease were estimated using Magpix® multiplex machine.
(§3) For Alzheimer's disease the percent modulation in each sample was determined as follows: […]

RAGE = test system: RAGE
Protocol: as §1, §2, §3

MPO = test system: MPO
Protocol: as §1, §2, §3

SMILES: COc1ccc2c3c1O[C@H]1C[C@@H](O)C=C[C@@]31CCN(C)C2 [Galantamine, reference compound]
- % Change of Biomarkers markers (wrt Control) b-NGF (b-NGF; 1 μM): 9.1%
- % Change of Biomarkers markers (wrt Control) b-NGF (b-NGF; 10 μM): 0%
- % Change of Biomarkers markers (wrt Control) b-NGF (b-NGF; 100 μM): −9%
- % Change of Biomarkers markers (wrt Control) RAGE (RAGE; 1 μM): 0%
- % Change of Biomarkers markers (wrt Control) RAGE (RAGE; 10 μM): 0%
- % Change of Biomarkers markers (wrt Control) RAGE (RAGE; 100 μM): −38.7%
- % Change of Biomarkers markers (wrt Control) MPO (MPO; 1 μM): −64%
- % Change of Biomarkers markers (wrt Control) MPO (MPO; 10 μM): −31.2%
- % Change of Biomarkers markers (wrt Control) MPO (MPO; 100 μM): −45.9%
